# US8058306B2, “Phenyl pyrrole aminoguanidine derivatives” (Action Pharma A/S, priority 2006, dated 2011)
# Values joined by “and” are separate entries in the source; they are usually repeats but may differ in a detail not shown here. Equal entries are not always repeated. “Also recorded” adds a separate entry of the source. Where two headings read alike, the source gives them in different places.
# Experiment: Plasma kinetics in rat following intravenous and oral administration;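 on AUC0-∞: parameter is AUC from zero to infinity in ng·h/mL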
# Format: in vivo, Sprague Dawley rats
# Protocol: This study determined the intravenous pharmacokinetics and oral bioavailability of compound 1 of the invention (see FIG. 1A, structure no. 1), compound 2 of the invention (see FIG. 1D, structure no. 19) and compound 3 of the invention (see FIG. 1I, structure no. 53) following administration to Sprague Dawley rats at a dose level of 10 mg/kg.
# Six groups of 3 male rats received either a single intravenous or single oral administration of compound 1, 2 or 3 of the invention at a dose level of 10 mg/kg. Blood samples were obtained at various times after dosing. Plasma samples were analysed for unchanged test item using a suitable LC-MS/MS method. Pharmacokinetic parameters were estimated from individual plasma concentrations.
# Eighteen male rats each received either a single intravenous or a single oral administration of either compound 1, 2 or 3 at a dose level of 10 mg/kg. The formulation was orally administered to each animal by gastric gavage and intravenously administered to each animal via a tail vein. The dose was administered at a dose volume of 5 mL/kg. The formulations were administered to each animal according to the details in the following table:
# Blood samples (ca 0.3 mL) were removed from the femoral vein of each animal into tubes containing lithium heparin as anticoagulant.
# Blood samples were collected from 3 rats at the following times after dose administration: • 3, 6, 15, 45 min and 1.5, 2.5, 4, 6, 8, 24 h post dose. Oral Administration
# Blood samples were collected from 3 rats at the following times after dose administration: • 5, 15, 45 min and 1.5, 2.5, 4, 6, 8, 24 h post dose. Processing of Blood Samples
# Pharmacokinetic parameters of compound 1, 2 and 3 were derived by non-compartmental analysis using WinNonLin Pro version 5.0.1 (Pharsight 2005). The following parameters were derived, where appropriate, from the individual plasma concentration versus time profiles:
# • F % The absolute oral bioavailability calculated as [AUC0-t (oral)*Dose(iv)/AUC0-t (iv)*Dose (oral)]*100 based on mean values derived after oral and intravenous administration Consideration was given to the estimation of λz and corresponding t1/2 values. Three or more points are required within the terminal phase for λz and t1/2 to be estimated. The following additional variables were tabulated to aid identification of potentially unreliable estimates of t1/2 and AUC:
# Pharmacokinetic parameters were reported as geometric mean except Tmax which was reported as the median. Geometric coefficient of variation was calculated as: […]
# Actual sampling times were used for all calculations of pharmacokinetic parameters. Plasma concentrations that were below the limit of quantification were taken as zero for the pharmacokinetic analysis.
# [1] = intravenous 10 mg/kg, male rats, individual animals, acetate, 10 mg/kg
# [2] = male, Sprague Dawley, rat, plasma, iv, 10 mg/kg, single intravenous 10 mg/kg, male rats, individual animals, read-out: Sample Concentration in plasma
# [3] = male, Sprague Dawley, rat, plasma, iv, 10 mg/kg, single intravenous 10 mg/kg, male rats, mean of 3, read-out: Mean Concentration in plasma
structure (smiles),measurement,setting,value
"N=C(N)NN=CC=Cc1cccn1-c1ccccc1[N+](=O)[O-] [Compound 2, [1-(2-nitrophenyl)-1H-pyrrol-2-yl-allylideneamino]guanidinium acetate]",bioavailability,"Sprague Dawley, rat, plasma, 10 mg/kg oral vs intravenous, male rats, from mean AUC0-t, read-out: Mean absolute oral bioavailability",3.2%
same,"Between-animal variability in systemic exposure, coefficient of variation (CV) of AUC0-t","intravenous 10 mg/kg, male rats",less than 30%
same,AUC0-∞,[1],1868 ng·h/mL and 2468 ng·h/mL
same,AUC(0-t),[1],1701 ng·h/mL and 2445 ng·h/mL
same,C0,[1],4747 ng/mL and 2637 ng/mL
same,CL,[1],90.45 mL/min/kg and 68.88 mL/min/kg
same,MRT,[1],2.84 h and 4.84 h
same,Vss,[1],15408 mL/kg and 20008 mL/kg
same,t1/2,[1],2.718 h and 3.8896 h
same,Systemic clearance (in words),"intravenous 10 mg/kg, rats",high
same,volume of distribution compared with total body water (in words),"intravenous 10 mg/kg, rats, total body water 668 mL/kg, acetate, 10 mg/kg",exceeded the total body water; also recorded: markedly greater than that of the total body water
same,systemic plasma clearance (CL) compared with hepatic blood flow (in words),"intravenous 10 mg/kg, hepatic blood flow 3312 mL/h/kg",greater than hepatic blood flow
same,AUC(0-inf),"male, Sprague Dawley, rat, plasma, iv, 10 mg/kg, intravenous 10 mg/kg, male rats, Arithmetic Mean",2030 ng·h/mL
same,AUC(0-t),"male, Sprague Dawley, rat, plasma, iv, 10 mg/kg, intravenous 10 mg/kg, male rats, Arithmetic Mean, read-out: AUC0-t",1880 ng·h/mL
same,C0,"male, Sprague Dawley, rat, plasma, iv, 10 mg/kg, intravenous 10 mg/kg, male rats, Arithmetic Mean, read-out: C0",3470 ng/mL
same,clearance,"male, Sprague Dawley, rat, plasma, iv, 10 mg/kg, intravenous 10 mg/kg, male rats, Arithmetic Mean, read-out: CL (converted)",85.5 mL/min/kg
same,MRT,"male, Sprague Dawley, rat, plasma, iv, 10 mg/kg, intravenous 10 mg/kg, male rats, Arithmetic Mean, read-out: MRT",3.74 h
same,Vd,"male, Sprague Dawley, rat, plasma, iv, 10 mg/kg, intravenous 10 mg/kg, male rats, Arithmetic Mean, read-out: Vss",18.7 L/kg
same,half-life,"male, Sprague Dawley, rat, plasma, iv, 10 mg/kg, intravenous 10 mg/kg, male rats, Arithmetic Mean, read-out: t1/2 (converted)",197 min
same,AUC(0-inf),"male, Sprague Dawley, rat, plasma, iv, 10 mg/kg, intravenous 10 mg/kg, male rats, Geometric mean",2010 ng·h/mL
same,AUC(0-t),"male, Sprague Dawley, rat, plasma, iv, 10 mg/kg, intravenous 10 mg/kg, male rats, Geometric mean, read-out: AUC0-t",1840 ng·h/mL
same,C0,"male, Sprague Dawley, rat, plasma, iv, 10 mg/kg, intravenous 10 mg/kg, male rats, Geometric mean, read-out: C0",3360 ng/mL
same,clearance,"male, Sprague Dawley, rat, plasma, iv, 10 mg/kg, intravenous 10 mg/kg, male rats, Geometric mean, read-out: CL (systemic plasma clearance) (converted)",84.6 mL/min/kg
same,MRT,"male, Sprague Dawley, rat, plasma, iv, 10 mg/kg, intravenous 10 mg/kg, male rats, Geometric mean, read-out: MRT",3.65 h
same,Vd,"male, Sprague Dawley, rat, plasma, iv, 10 mg/kg, intravenous 10 mg/kg, male rats, Geometric mean, read-out: Vss (mean apparent volume of distribution)",18.5 L/kg
same,half-life,"male, Sprague Dawley, rat, plasma, iv, 10 mg/kg, intravenous 10 mg/kg, male rats, Geometric mean, read-out: t1/2 (mean apparent terminal half-life) (converted)",195 min
same,AUC(0-inf),"male, Sprague Dawley, rat, plasma, iv, 10 mg/kg, intravenous 10 mg/kg, male rats, Median",1870 ng·h/mL
same,AUC(0-t),"male, Sprague Dawley, rat, plasma, iv, 10 mg/kg, intravenous 10 mg/kg, male rats, Median, read-out: AUC0-t",1700 ng·h/mL
same,C0,"male, Sprague Dawley, rat, plasma, iv, 10 mg/kg, intravenous 10 mg/kg, male rats, Median, read-out: C0",3020 ng/mL
same,clearance,"male, Sprague Dawley, rat, plasma, iv, 10 mg/kg, intravenous 10 mg/kg, male rats, Median, read-out: CL (converted)",90.5 mL/min/kg
same,MRT,"male, Sprague Dawley, rat, plasma, iv, 10 mg/kg, intravenous 10 mg/kg, male rats, Median, read-out: MRT",3.53 h
same,Vd,"male, Sprague Dawley, rat, plasma, iv, 10 mg/kg, intravenous 10 mg/kg, male rats, Median, read-out: Vss",20 L/kg
same,half-life,"male, Sprague Dawley, rat, plasma, iv, 10 mg/kg, intravenous 10 mg/kg, male rats, Median, read-out: t1/2 (converted)",195 min
same,AUC(0-inf),"male, Sprague Dawley, rat, plasma, iv, 10 mg/kg, intravenous 10 mg/kg, male rats, individual animals",1750 ng·h/mL
same,AUC(0-t),"male, Sprague Dawley, rat, plasma, iv, 10 mg/kg, intravenous 10 mg/kg, male rats, individual animals, read-out: AUC0-t",1500 ng·h/mL
same,C0,"male, Sprague Dawley, rat, plasma, iv, 10 mg/kg, intravenous 10 mg/kg, male rats, individual animals, read-out: C0",3020 ng/mL
same,clearance,"male, Sprague Dawley, rat, plasma, iv, 10 mg/kg, intravenous 10 mg/kg, male rats, individual animals, read-out: CL (converted)",97.1 mL/min/kg
same,MRT,"male, Sprague Dawley, rat, plasma, iv, 10 mg/kg, intravenous 10 mg/kg, male rats, individual animals, read-out: MRT",3.53 h
same,Vd,"male, Sprague Dawley, rat, plasma, iv, 10 mg/kg, intravenous 10 mg/kg, male rats, individual animals, read-out: Vss",20.6 L/kg
same,half-life,"male, Sprague Dawley, rat, plasma, iv, 10 mg/kg, intravenous 10 mg/kg, male rats, individual animals, read-out: t1/2 (converted)",195 min
same,concentration at 0.05 h,"male, Sprague Dawley, rat, plasma, iv, 10 mg/kg, single intravenous 10 mg/kg, male rats, 0.05 h (3 min), mean of 3, read-out: Mean Concentration in plasma",2350 ng/mL
same,concentration at 0.05 h,"male, Sprague Dawley, rat, plasma, iv, 10 mg/kg, single intravenous 10 mg/kg, male rats, 0.05 h, individual animals, read-out: Sample Concentration in plasma",1640 ng/mL
same,concentration at 0.1 h,[2],1590 ng/mL
same,concentration at 0.1 h,[3],1340 ng/mL
same,concentration at 0.25 h,[2],847 ng/mL
same,concentration at 0.25 h,[3],724 ng/mL
same,concentration at 0.75 h,[2],264 ng/mL
same,concentration at 0.75 h,[3],278 ng/mL
same,concentration at 1.5 h,[2],250 ng/mL
same,concentration at 1.5 h,[3],217 ng/mL
same,concentration at 2.5 h,[2],195 ng/mL
same,concentration at 2.5 h,[3],191 ng/mL
same,concentration at 4 h,[2],122 ng/mL
same,concentration at 4 h,[3],132 ng/mL
same,concentration at 6 h,[2],83.9 ng/mL
same,concentration at 6 h,[3],86 ng/mL
same,concentration at 8 h,"male, Sprague Dawley, rat, plasma, iv, 10 mg/kg, single intravenous 10 mg/kg, male rats, 8 h, mean, read-out: Mean Concentration in plasma",65.1 ng/mL
